These results are taken from US20250129021A1, “SMALL MOLECULE PROTEIN SYNTHESIS MODULATORS” (Interdict Bio, Inc., priority 2023, published 2025).

Format in all cases: biochemical
One assay deals with MYC. Put plainly: In vitro transcription-translation (IVTT) assay, MYC reporter. The conditions noted are these: IVTT assay, HeLa S3 lysate, MYC reporter, normalized sfGFP/mCherry ratio; half-log dilutions 30 μM-0.1 μM, 2 hrs at 30° C. The gist of the method:
(§1)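 Reporter: mCherry, P2A, then 3×FLAG-target peptide-sfGFP fusion, IRES-initiated; HeLa S3 lysate IVTT; cpd dilutions 30 μM−0.1 μM half-log in 100% DMSO (dilution-plate conc); DNA added last; 2 h, 30° C; PBS quench.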

A further assay has as its system CCND1. In words: In vitro transcription-translation (IVTT) assay, CCND1 reporter. The conditions noted are these: IVTT, HeLa S3 lysate, 2 hrs at 30° C. The gist of the method:
as §1

For another assay, the system named is MCL-1. In words: In vitro transcription-translation (IVTT) assay, MCL-1 reporter. The conditions noted are these: HeLa S3 lysate, read-out: MCL1 IC50. In a few lines:
as §1

Assay [1] has as its system CCNE1. Put plainly: In vitro transcription-translation (IVTT) assay, CCNE1 reporter. The conditions noted are these: HeLa S3 lysate, 2 hrs at 30° C. In a few lines: (§2)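 HeLa S3 lysate-based coupled transcription-translation reactions with reporter plasmids, compounds in half-log dilutions (30 μM−0.1 μM, in DMSO), 2 h at 30° C. sfGFP/mCherry ratio, corrected for no-DNA background, normalized to no-drug control and fitted for IC50.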

Another assay concerns CCNTB1. Put plainly: In vitro transcription-translation (IVTT) assay, CCNTB1 reporter. The conditions noted are these: HeLa S3 lysate, 2 hrs at 30° C. In a few lines: as §2
In assay [2] the test system is CCNE1. Put plainly: In vitro transcription-translation (IVTT) assay, CCNE1 reporter. The conditions noted are these: HeLa S3 lysate, sfGFP/mCherry ratio. The protocol:
In vitro transcription-translation assay setup: Each assay includes a master mix containing lysate and shared components, a 96-well plate containing compound titrations for testing, a 96-well DNA plate with reporter constructs to be tested, 96-well skirted PCR plates, and 96-well flat-bottom, black, fluorescent assay plates. Reaction materials setup: (A) Master mix—15 mL conical tube (3 mL of HeLa S3 Lysate described above; 0.6 mL of ThermoFisher Accessory Proteins (#88882); 1.2 ml of ThermoFisher Reaction Mix (#88882); 0.54 mL of nuclease-free Water); (B) 96-Well Master Mix+Compound Plate (Half-log dilutions (30 μM−0.1 μM) of 4 compounds of interest are prepared in 100% DMSO); 96-Well DNA Plate (Five DNA constructs are plated into single columns within the plate. Row 1 of the column contains nuclease free H2O, all other wells contain 110 ng/μL plasmid DNA). Reactions are started by mixing 155 μL of master mix and 3.5 μL of compound serial dilutions, then 9.1 μL of master mix+compound mixture is aliquoted across 5 96-well plates. Reactions begin with final addition of 2 μL of DNA for a 11.1 μL reaction volume in each well. The entire plate is sealed, and incubated for 2 hrs at 30° C. After 2 hrs, quench the assay using 45 μL of PBS, and transfer 50 μL to a flat-bottom black microplate Quantify the sfGFP and mCherry signals from each well on each plate, taking 3 reads of each plate, and perform data analysis below.
In vitro transcription-translation assay data analysis: Each plate is read three times in channels for both sfGFP and mCherry signals. The average signal across these 3 reads is then calculated for further analysis. Control wells containing no DNA reporter are subtracted from reporter wells in the same column to remove auto-fluorescence of the lysate. Then, the ratio of sfGFP/mCherry is calculated per well, and these ratios are averaged across the triplicate experiments on the same plate. Finally, the ratio of each titration concentration is normalized to the no drug control to create the normalized stalling metric. The error on this measurement is determined by propagating error through the averaging and normalization steps. Values are plotted and fit for IC50 determination for each test sequence and titration of compound.

Setting [3] is: IVTT assay, sfGFP/mCherry ratio.

Read-outs that look alike come from different tables or passages of the source. Where only a bound is given, the exact number is not on record here.

What is called IC50 is the midpoint of a concentration-inhibition curve. Turning to `COc1ccc(C[C@H]2NC[C@H](O)[C@H]2OC(=O)NCCn2ccnc2N)cc1` [V188086, (2R,3S,4S)-4-hydroxy-2-[(4-methoxyphenyl)methyl]pyrrolidin-3-yl N-[2-(2-aminoimidazole-1-yl)ethyl]carbamate], the IC50 in the assay on MYC is 10 to 20 µM; in the assay on CCND1, 10 to 20 µM; with MCL-1 (IVTT, 2 hrs at 30° C.), 10 to 20 µM; in the assay on CCNE1 [1] it was under 10 µM; in the assay with CCNTB1, under 10 µM.

Turning to `COc1ccc(C[C@H]2NC[C@H](O)[C@H]2OC(=O)NCc2ccc3cn[nH]c3c2)cc1` [V188151, (2R,3S,4S)-4-hydroxy-2-[(4-methoxyphenyl)methyl]pyrrolidin-3-yl N-(1H-indazol-6-ylmethyl)carbamate], the IC50 in the assay with MYC is under 10 µM; in the assay with CCND1, under 10 µM; with MCL-1 (IVTT, 2 hrs at 30° C.), under 10 µM; with CCNE1 [1], under 10 µM; with CCNTB1, under 10 µM.

On to `COc1ccc(C[C@H]2NC[C@H](O)[C@H]2OC(=O)NC[C@H]2CCN(c3ncccn3)C2)cc1` [V188171, (2R,3S,4S)-4-hydroxy-2-[(4-methoxyphenyl)methyl]pyrrolidin-3-yl N-{[(3R)-1-(pyrimidin-2-yl)pyrrolidin-3-yl]methyl}carbamate], for which the IC50 is 10 to 20 µM with MYC; 10 to 20 µM in the assay on CCND1; under 10 µM in the assay on MCL-1 (IVTT, 2 hrs at 30° C.); 10 to 20 µM in the assay with CCNE1 [1]; under 10 µM in the assay with CCNTB1.

`COc1ccc(C[C@H]2NC[C@H](O)[C@H]2OC(=O)NCc2ccnc(N3CCC3)c2)cc1` [V188225, (2R,3S,4S)-4-hydroxy-2-[(4-methoxyphenyl)methyl]pyrrolidin-3-yl N-{[2-(azetidin-1-yl)pyridin-4-yl]methyl}carbamate]: the IC50 in the assay on MYC was under 10 µM; in the assay on CCND1, under 10 µM; with MCL-1 (IVTT, 2 hrs at 30° C.), under 10 µM; in the assay with CCNE1 [1], under 10 µM; in the assay with CCNTB1 it was under 10 µM.

`COc1ccc(C[C@H]2NC[C@H](O)[C@H]2OC(=O)NCCC2CCNCC2)cc1` [V188229, (2R,3S,4S)-4-hydroxy-2-[(4-methoxyphenyl)methyl]pyrrolidin-3-yl N-[2-(piperidin-4-yl)ethyl]carbamate]: the IC50 in the assay with MYC is under 10 µM; with CCND1, 10 to 20 µM; in the assay on MCL-1 (IVTT, 2 hrs at 30° C.), under 10 µM; in the assay on CCNE1 [1], 10 to 20 µM; with CCNTB1, under 10 µM.

As to `O=C(NCc1cc[nH]c(=O)c1)O[C@@H]1[C@@H](O)CN[C@@H]1Cc1ccc(Cl)cc1` [V188274, (2R,3S,4S)-2-[(4-chlorophenyl)methyl]-4-hydroxypyrrolidin-3-yl N-[(2-oxo-1H-pyridin-4-yl)methyl]carbamate], the IC50 in the assay with MYC was under 10 µM; in the assay with CCND1 it was under 10 µM; with MCL-1 (IVTT, 2 hrs at 30° C.), under 10 µM; with CCNE1 [1] it was under 10 µM; with CCNTB1, under 10 µM.

Consider `O=C(NC[C@H]1CCOC1)O[C@@H]1[C@@H](O)CN[C@@H]1Cc1ccc(Cl)cc1` [V188287, (2R,3S,4S)-2-[(4-chlorophenyl)methyl]-4-hydroxypyrrolidin-3-yl N-[(3R)-oxolan-3-ylmethyl]carbamate], for which the IC50 in the assay on MYC was under 10 µM; with CCND1, under 10 µM; with MCL-1 (IVTT, 2 hrs at 30° C.), under 10 µM; in the assay with CCNE1 [1], under 10 µM; in the assay with CCNTB1, under 10 µM.

Turning to `O=C(NCc1cnoc1)O[C@@H]1[C@@H](O)CN[C@@H]1Cc1ccc(Cl)cc1` [V188289, (2R,3S,4S)-2-[(4-chlorophenyl)methyl]-4-hydroxypyrrolidin-3-yl N-(1,2-oxazol-4-ylmethyl)carbamate], the IC50 with MYC is under 10 µM; in the assay with CCND1, under 10 µM; in the assay with MCL-1 (IVTT, 2 hrs at 30° C.), under 10 µM; in the assay on CCNE1 [1], under 10 µM; in the assay with CCNTB1, under 10 µM.

As to `O=C(NCc1cnsc1)O[C@@H]1[C@@H](O)CN[C@@H]1Cc1ccc(C(F)F)cc1` [V192929, (2R,3S,4S)-2-(4-(difluoromethyl)benzyl)-4-hydroxypyrrolidin-3-yl (isothiazol-4-ylmethyl)carbamate], the IC50 with MYC, in the assay with MCL-1 (setting [3]) and in the assay on CCNE1 [2] was under 10 µM throughout.

For the molecule `O=C(NCCOC(F)(F)F)O[C@@H]1[C@@H](O)CN[C@@H]1Cc1ccc(C(F)F)cc1` [V192930, (2R,3S,4S)-2-(4-(difluoromethyl)benzyl)-4-hydroxypyrrolidin-3-yl (2-(trifluoromethoxy)ethyl)carbamate], the IC50 in the assay with MYC, with MCL-1 (setting [3]) and in the assay with CCNE1 [2] was under 10 µM throughout.

Take `O=C(NCC[C@@H]1CCN1)O[C@@H]1[C@@H](O)CN[C@@H]1Cc1ccc(OC(F)F)cc1` [V192938, (2R,3S,4S)-2-{[4-(difluoromethoxy)phenyl]methyl}-4-hydroxypyrrolidin-3-yl N-{2-[(2S)-azetidin-2-yl]ethyl}carbamate]: the IC50 in the assay with MYC, with MCL-1 (setting [3]) and with CCNE1 [2] was under 10 µM in each case.

On to `O=C(NCC[C@@H]1CCN1)O[C@@H]1[C@@H](O)CN[C@@H]1Cc1ccc(-c2cnco2)cc1F` [V192990, (2R,3S,4S)-2-(2-fluoro-4-(oxazol-5-yl)benzyl)-4-hydroxypyrrolidin-3-yl (2-((S)-azetidin-2-yl)ethyl)carbamate], for which the IC50 with MYC, in the assay with MCL-1 (setting [3]) and in the assay on CCNE1 [2] was under 10 µM throughout.

`O=C(NCC[C@@H]1CCN1)O[C@@H]1[C@@H](O)CN[C@@H]1Cc1ccc(-c2cnco2)c(F)c1` [V192991, (2R,3S,4S)-2-(3-fluoro-4-(oxazol-5-yl)benzyl)-4-hydroxypyrrolidin-3-yl (2-((S)-azetidin-2-yl)ethyl)carbamate]: the IC50 in the assay with MYC, with MCL-1 (setting [3]) and in the assay with CCNE1 [2] was under 10 µM throughout.

For `O=C(NCC[C@@H]1CCN1)O[C@@H]1[C@@H](O)CN[C@@H]1Cc1ccc(C(F)F)cc1` [V193008, (2R,3S,4S)-2-{[4-(difluoromethyl)phenyl]methyl}-4-hydroxypyrrolidin-3-yl N-{2-[(2S)-azetidin-2-yl]ethyl}carbamate], the IC50 in the assay on MYC, in the assay on MCL-1 (setting [3]) and in the assay on CCNE1 [2] was under 10 µM each time.

With `O=C(NCC[C@@H]1CCNC1)O[C@@H]1[C@@H](O)CN[C@@H]1Cc1ccc(C(F)F)cc1` [V193010, (2R,3S,4S)-2-(4-(difluoromethyl)benzyl)-4-hydroxypyrrolidin-3-yl (2-((S)-pyrrolidin-3-yl)ethyl)carbamate], the figures for the IC50 in the assay on MYC, in the assay on MCL-1 (setting [3]) and with CCNE1 [2] were under 10 µM, 10 to 20 µM and under 10 µM, respectively.

Turning to `O=C(NCC[C@@H]1CCNC1)O[C@@H]1[C@@H](O)CN[C@@H]1Cc1ccc(-c2cnco2)cc1` [V193011, (2R,3S,4S)-4-hydroxy-2-{[4-(1,3-oxazol-5-yl)phenyl]methyl}pyrrolidin-3-yl N-{2-[(3S)-pyrrolidin-3-yl]ethyl}carbamate], the IC50 in the assay with MYC, in the assay on MCL-1 (setting [3]) and with CCNE1 [2] was under 10 µM each time.

Consider `O=C(NCC[C@H]1CCCCNC1)O[C@@H]1[C@@H](O)CN[C@@H]1Cc1ccc(-c2cnco2)cc1` [V193012, (2R,3S,4S)-4-hydroxy-2-(4-(oxazol-5-yl)benzyl)pyrrolidin-3-yl (2-((R)-azepan-3-yl)ethyl)carbamate], for which the half-inhibitory concentration (IC50) in the assay on MYC, in the assay on MCL-1 (setting [3]) and with CCNE1 [2] was under 10 µM in each case.
